Laboratory results published in patent US20120283334A1, “Treatment of Viral Infections” (Biocopea, Ltd., priority 2009, published 2012).

System: influenza (A/PR/8/34), H1N1 virus
Experiment: In vivo mouse influenza challenge, bupropion metabolite by oral gavage
Settings: H1N1-infected mice
Source text: 6) In Vivo Mouse Studies Using Bupropion Metabolite
The bupropion metabolite known as 2-(1,1-dimethylethyl)amino-1-(3-chlorophenyl)propan-1-ol (BC1053), in 10% ethanol, was delivered orally to influenza infected mice, as follows.
Two groups of n=12 C57BLK/6 barrier reared female mice (6-8 weeks old, and between 15-18 g in weight) were intranasally challenged with a lethal dose of influenza (A/PR/8/34). On day 3 post-challenge, the animals received the following treatments: group A received an oral gavage of 100 μl of 10% Ethanol in water; and group B received an oral gavage of 100 μl containing 540 μg of bupropion metabolite in 10% Ethanol in water.
The animals were weighed and monitored daily for morbidity and mortality up to day 6, when all animals were culled. Average weight loss per group and survival were calculated.
As described above, mice were infected with a H1N1 virus which was allowed to become established in each of the subjects. Each test mouse was then treated with 2-(1,1-dimethylethyl)amino-1-(3-chlorophenyl)propan-1-ol (i.e. a bupropion metabolite, BC1053) with a single dose on day 3 after infection with the virus. In the control mice, no metabolite was administered. The weight loss of both treated and untreated mice was then determined.

SMILES: CC(NC(C)(C)C)C(O)c1cccc(Cl)c1 (centres unmarked) [BC1053, 2-(1,1-dimethylethyl)amino-1-(3-chlorophenyl)propan-1-ol]
- lower reduction in weight loss than the control mice (single oral dose 540 μg on day 3, FIG. 4): ≥ 30%
- higher survival rate than the control, untreated mice (single oral dose 540 μg on day 3, FIG. 5): about 30%
